Measured values taken from patent US20250144077A1, “DOSAGE REGIMEN FOR THROMBOPOIETIN RECEPTOR AGONIST” (JIANGSU HENGRUI PHARMACEUTICALS CO., LTD., priority 2022, published 2025).
Where two headings read alike, the source gives them in different places.

Columns and labels:
plasma protein = experiment: Plasma protein binding rate of herombopag in subjects with hepatic impairments; format: in vitro ADME, human
platelet counts = experiment: PD: platelet counts after administration compared to baseline; format: in vivo, human; conditions: all the groups; single 7.5 mg oral dose
Protocol: (§1) All the subjects in each group underwent PK, PD, and safety index collection following the administration of the study drug on D1 according to the trial process chart, and comparative analysis was then performed between groups.

[1] = Safety and adverse events after single 7.5 mg oral dose (CTCAE5.0 grading); format: in vivo, human
Protocol: as §1
(§2) Prior to the day-1 administration (D-1), the subjects were required to fast for 10 h or more, though water intake was not prohibited. The following morning (D1), the subjects orally took, on an empty stomach, a 7.5 mg dose of herombopag diethanolamine tablets (comprised of one 2.5 mg tablet and one 5 mg tablet) with about 240 mL of warm water. Water intake was prohibited 1 h before and after the administration. The subjects had lunch about 4 h after the administration and had dinner about 10 h after the administration. The subjects were advised to remain seated within the 2 h after the administration and to avoid strenuous exercise and prolonged bed rest.
In this study, a total of 24 subjects were included, and all of them were included in a safety analysis set.
In this study, all drug-related AEs were graded according to CTCAE5.0. […] The adverse reactions mainly occurred in the hepatic impairment groups, and the incidence of adverse reactions in the moderate hepatic impairment group was relatively high, which may be attributed to the fact that these subjects had pre-existing liver diseases of varying degrees of severity and most of them already had abnormal baseline laboratory test results. These subjects recovered from all the adverse events without intervention.

[2] = Single-dose, open-label pharmacokinetics of herombopag in subjects with normal liver function, mild and moderate hepatic impairments; format: in vivo, human; conditions: for AUC0-t GLSM Ratio / AUC0-∞ GLSM Ratio / Cmax GLSM Ratio: ANOVA
Protocol: Example 1: Study of Pharmacokinetics and Safety of Trial Drug in Subjects with Mild Hepatic Impairments (Child-Pugh: Grade A), Moderate Hepatic Impairments (Child-Pugh: Grade B), and Normal Liver Function
Trial drug: tablets of herombopag diethanolamine salt, produced and provided by Jiangsu Hengrui, strengths: 2.5 mg/tablet and 5 mg/tablet.
This study is a single-dose, open-label trial designed to evaluate the pharmacokinetics of herombopag in subjects with normal liver function, mild hepatic impairments, and moderate hepatic impairments.
The severity of the hepatic functional impairments in the subjects was assessed using the Child-Pugh score (mild: grade A, a score of 5 or 6; moderate: grade B, a score of 7-9).
as §1
PK blood sampling time points: Venous blood samples of about 4 mL were collected from each subject within the 1 h prior to administration and at 0.5, 1, 2, 4, 6, 7, 8, 10, 12, 24, 48, 72, 96, and 120 h after administration. Blood sampling time windows: within the 60 min prior to administration; ±2 min for the 0.5 h-2 h after administration; ±5 min for the 4 h-12 h; ±15 min for the 24 h-120 h after administration.
as §2
Pharmacokinetic parameters of herombopag, including Tmax, Cmax, AUC0-t, AUC0-∞, t1/2, V/F, and CL/F, were calculated according to the actual sampling time points using a non-compartmental model (NCA) on Phoenix WinNonlin 8.1.

[3] = moderate hepatic impairment group, 5 subjects
[4] = Moderate vs. Normal (moderate/normal)
[5] = mild hepatic impairments compared with normal liver function
[6] = moderate hepatic impairments compared with normal liver function
[7] = single 7.5 mg oral dose, fasted, mild hepatic impairment (n = 8), GeoMean (% CVb)
[8] = single 7.5 mg oral dose, fasted, moderate hepatic impairment (n = 8), GeoMean (% CVb)
[9] = single 7.5 mg oral dose, fasted, normal liver function group (n = 8), GeoMean (% CVb)

effect of hepatic impairments on plasma protein binding rate (plasma protein): did not significantly affect | AUC0-t GLSM Ratio ([2]; Mild vs. Normal (mild/normal)): 121.73% | AUC0-∞ GLSM Ratio ([2]; Mild vs. Normal (mild/normal)): 120.16% | Cmax GLSM Ratio ([2]; Mild vs. Normal (mild/normal)): 170.39% | AUC0-t GLSM Ratio [2, 4]: 171.21% | AUC0-∞ GLSM Ratio [2, 4]: 173.06% | Cmax GLSM Ratio [2, 4]: 204.72% | median time to peak, hepatic impairment groups versus normal liver function group ([2]; human, in vivo): smaller median time to peak | AUC(0-t) ([2]; human, plasma, oral, 7.5 mg, geometric least squares mean, mild hepatic impairment group, n 8, read-out: AUC0-t GLSM): 1060 ng·h/mL | AUC(0-inf) ([2]; human, plasma, oral, 7.5 mg, geometric least squares mean, mild hepatic impairment group, n 8, read-out: AUC0-∞ GLSM): 1120 ng·h/mL | Cmax ([2]; human, plasma, oral, 7.5 mg, geometric least squares mean, mild hepatic impairment group, n 8, read-out: Cmax GLSM): 62.6 ng/mL | AUC(0-t) ([2]; human, plasma, oral, 7.5 mg, geometric least squares mean, moderate hepatic impairment group, n 8, read-out: AUC0-t GLSM): 1500 ng·h/mL | AUC(0-inf) ([2]; human, plasma, oral, 7.5 mg, geometric least squares mean, moderate hepatic impairment group, n 8, read-out: AUC0-∞ GLSM): 1610 ng·h/mL | Cmax ([2]; human, plasma, oral, 7.5 mg, geometric least squares mean, moderate hepatic impairment group, n 8, read-out: Cmax GLSM): 75.3 ng/mL | AUC(0-t) ([2]; human, plasma, oral, 7.5 mg, geometric least squares mean, normal liver function group, n 8, read-out: AUC0-t GLSM): 874 ng·h/mL | AUC(0-inf) ([2]; human, plasma, oral, 7.5 mg, geometric least squares mean, normal liver function group, n 8, read-out: AUC0-∞ GLSM): 929 ng·h/mL | Cmax ([2]; human, plasma, oral, 7.5 mg, geometric least squares mean, normal liver function group, n 8, read-out: Cmax GLSM): 36.8 ng/mL | half-life ([2]; human, plasma, po, 7.5 mg, single 7.5 mg oral dose, empty stomach, mild hepatic impairments (Child-Pugh: grade A), read-out: arithmetic mean of t1/2 (converted)): 32.3 h | AUC(0-t) ([2]; human, plasma, po, 7.5 mg, single 7.5 mg oral dose, empty stomach, mild hepatic impairments (Child-Pugh: grade A), read-out: geometric mean of AUC0-t): 1060 ng·h/mL | AUC(0-inf) ([2]; human, plasma, po, 7.5 mg, single 7.5 mg oral dose, empty stomach, mild hepatic impairments (Child-Pugh: grade A), read-out: geometric mean of AUC0-∞): 1120 ng·h/mL | Tmax ([2]; human, plasma, po, 7.5 mg, single 7.5 mg oral dose, empty stomach, mild hepatic impairments (Child-Pugh: grade A), read-out: median of Tmax): 2 h | half-life ([2]; human, plasma, po, 7.5 mg, single 7.5 mg oral dose, empty stomach, moderate hepatic impairments (Child-Pugh: grade B), read-out: arithmetic mean of t1/2 (converted)): 36.3 h | AUC(0-t) ([2]; human, plasma, po, 7.5 mg, single 7.5 mg oral dose, empty stomach, moderate hepatic impairments (Child-Pugh: grade B), read-out: geometric mean of AUC0-t): 1580 ng·h/mL | AUC(0-inf) ([2]; human, plasma, po, 7.5 mg, single 7.5 mg oral dose, empty stomach, moderate hepatic impairments (Child-Pugh: grade B), read-out: geometric mean of AUC0-∞): 1660 ng·h/mL | Tmax ([2]; human, plasma, po, 7.5 mg, single 7.5 mg oral dose, empty stomach, moderate hepatic impairments (Child-Pugh: grade B), read-out: median of Tmax): 2 h | half-life ([2]; human, plasma, po, 7.5 mg, single 7.5 mg oral dose, empty stomach, normal liver function, read-out: arithmetic mean of t1/2 (converted)): 34.6 h | AUC(0-t) ([2]; human, plasma, po, 7.5 mg, single 7.5 mg oral dose, empty stomach, normal liver function, read-out: geometric mean of AUC0-t): 874 ng·h/mL | AUC(0-inf) ([2]; human, plasma, po, 7.5 mg, single 7.5 mg oral dose, empty stomach, normal liver function, read-out: geometric mean of AUC0-∞): 929 ng·h/mL | Tmax ([2]; human, plasma, po, 7.5 mg, single 7.5 mg oral dose, empty stomach, normal liver function, read-out: median of Tmax): 8 h | AUC(0-t) ([2]; human, plasma, po, 7.5 mg, single 7.5 mg oral dose, fasted, mild hepatic impairment (n = 8), GeoMean (% CVb), read-out: AUC0-t): 1060 ng·h/mL | AUC(0-inf) ([2]; human, plasma, po, 7.5 mg, single 7.5 mg oral dose, fasted, mild hepatic impairment (n = 8), GeoMean (% CVb), read-out: AUC0-∞): 1120 ng·h/mL | Cmax ([2]; human, plasma, po, 7.5 mg, single 7.5 mg oral dose, fasted, mild hepatic impairment (n = 8), GeoMean (% CVb), read-out: Cmax): 62.4 ng/mL | half-life ([2]; human, plasma, po, 7.5 mg, single 7.5 mg oral dose, fasted, mild hepatic impairment (n = 8), Mean ± SD, read-out: t1/2 (converted)): 32.2 ± 7.28 h | Tmax ([2]; human, plasma, po, 7.5 mg, single 7.5 mg oral dose, fasted, mild hepatic impairment (n = 8), Median (Min-Max), read-out: Tmax): 2 h | AUC(0-t) ([2]; human, plasma, po, 7.5 mg, single 7.5 mg oral dose, fasted, moderate hepatic impairment (n = 8), GeoMean (% CVb), read-out: AUC0-t): 1580 ng·h/mL | AUC(0-inf) ([2]; human, plasma, po, 7.5 mg, single 7.5 mg oral dose, fasted, moderate hepatic impairment (n = 8), GeoMean (% CVb), read-out: AUC0-∞): 1660 ng·h/mL | Cmax ([2]; human, plasma, po, 7.5 mg, single 7.5 mg oral dose, fasted, moderate hepatic impairment (n = 8), GeoMean (% CVb), read-out: Cmax): 82.8 ng/mL | half-life ([2]; human, plasma, po, 7.5 mg, single 7.5 mg oral dose, fasted, moderate hepatic impairment (n = 8), Mean ± SD, read-out: t1/2 (converted)): 36.3 ± 11.9 h | Tmax ([2]; human, plasma, po, 7.5 mg, single 7.5 mg oral dose, fasted, moderate hepatic impairment (n = 8), Median (Min-Max), read-out: Tmax): 2 h | AUC(0-t) ([2]; human, plasma, po, 7.5 mg, single 7.5 mg oral dose, fasted, normal liver function group (n = 8), GeoMean (% CVb), read-out: AUC0-t): 874 ng·h/mL | AUC(0-inf) ([2]; human, plasma, po, 7.5 mg, single 7.5 mg oral dose, fasted, normal liver function group (n = 8), GeoMean (% CVb), read-out: AUC0-∞): 929 ng·h/mL | Cmax ([2]; human, plasma, po, 7.5 mg, single 7.5 mg oral dose, fasted, normal liver function group (n = 8), GeoMean (% CVb), read-out: Cmax): 36.8 ng/mL | half-life ([2]; human, plasma, po, 7.5 mg, single 7.5 mg oral dose, fasted, normal liver function group (n = 8), Mean ± SD, read-out: t1/2 (converted)): 34.6 ± 11.9 h | Tmax ([2]; human, plasma, po, 7.5 mg, single 7.5 mg oral dose, fasted, normal liver function group (n = 8), Median (Min-Max), read-out: Tmax): 8 h | AUC0-t increase [2, 5]: 21.73% | AUC0-∞ increase [2, 5]: 20.16% | Cmax increase [2, 5]: 70.39% | AUC0-t increase [2, 6]: 71.21% | AUC0-∞ increase [2, 6]: 73.06% | Cmax increase [2, 6]: 104.72% | half-lives compared between groups ([2]; normal, mild and moderate hepatic impairment groups): substantially identical half-lives | CL/F [2, 7]: 6.72(41.5) L/h | Cmax [2, 7]: 62.6(42.2) ng/mL | V/F [2, 7]: 304(45.6) L | CL/F [2, 8]: 4.66(58.8) L/h | V/F [2, 8]: 233(69.7) L | CL/F [2, 9]: 8.07(101.6) L/h | V/F [2, 9]: 372(60.3) L
Compound: CC1=NN(c2ccc3c(c2)CCCC3)C(=O)/C1=N\Nc1cccc(-c2ccc(C(=O)O)o2)c1O [herombopag, (Z)-5-(2-hydroxy-3-(2-(3-methyl-5-oxo-1-(5,6,7,8-tetrahydronaphthalen-2-yl)-1H-pyrazol-4(5H)-ylidene)hydrazino)phenyl)furan-2-carboxylic acid]
platelet counts after administration compared to the baseline (platelet counts): trend towards higher platelet counts compared to the baseline | incidence of AEs related to the study drug ([1]; all 24 subjects, 13 subjects, 25 events): 54.2% | incidence of adverse events ([1]; all 24 subjects, 15 subjects, 29 events): 62.5% | subjects with grade 1 drug-related AEs (CTCAE5.0) ([1]; all subjects, nine subjects): 37.5% | subjects with grade 2 drug-related AEs (CTCAE5.0) ([1]; all subjects, seven subjects): 29.2% | subjects with grade 2 drug-related AEs (CTCAE5.0) ([1]; mild hepatic impairment group, 1 subject, decreased neutrophil count): 12.5% | subjects with grade 1 drug-related AEs (CTCAE5.0) ([1]; mild hepatic impairment group, 3 subjects): 37.5% | incidence of AEs related to the study drug ([1]; mild hepatic impairment group, 4 subjects, 5 events): 50.0% | subjects with grade 3 drug-related AEs (CTCAE5.0) ([1]; moderate hepatic impairment group, 1 subject): 12.5% | subjects with grade 1 drug-related AEs (CTCAE5.0) [1, 3]: 62.5% | subjects with grade 2 drug-related AEs (CTCAE5.0) [1, 3]: 62.5% | incidence of AEs related to the study drug ([1]; moderate hepatic impairment group, 7 subjects, 18 events): 87.5% | subjects with grade 1 drug-related AEs (CTCAE5.0) ([1]; normal liver function group, 1 subject): 25.0% | subjects with grade 2 drug-related AEs (CTCAE5.0) ([1]; normal liver function group, 1 subject, hypertriglyceridemia): 12.5% | incidence of AEs related to the study drug ([1]; normal liver function group, 2 subjects, 2 events): 25.0% | safety and tolerability ([1]; single oral dose, normal liver function, mild and moderate hepatic impairments): safe and well tolerated
